Reference: the NIST ThermoML archive (doi:10.1016/j.jct.2017.09.022)
Several values for one entry are separate records, joined by “and”; a condition that tells them apart may be missing. Identical values can stand only once.

Experiment: molar heat capacity at constant pressure
Conditions: 101.33 kPa, Crystal, Small (less than 1 g) adiabatic calorimetry

C[C@@H](O)[C@H](N)C(=O)O [L-threonine]
Conditions	molar heat capacity at constant pressure
5 K	0.06402 J/K/mol
7.37 K	0.2004 J/K/mol
7.65 K	0.2303 J/K/mol
8.44 K	0.3068 J/K/mol
9.19 K	0.3958 J/K/mol
9.43 K	0.4407 J/K/mol
9.67 K	0.4739 J/K/mol
9.9 K	0.4922 J/K/mol
10 K	0.5155 J/K/mol
10.18 K	0.5729 J/K/mol
10.51 K	0.6643 J/K/mol
10.84 K	0.7242 J/K/mol
11.17 K	0.8156 J/K/mol
11.5 K	0.9129 J/K/mol
11.83 K	0.9969 J/K/mol
12.17 K	1.113 J/K/mol
12.51 K	1.243 J/K/mol
12.84 K	1.353 J/K/mol
13.18 K	1.481 J/K/mol
13.53 K	1.619 J/K/mol
13.87 K	1.76 J/K/mol
14.22 K	1.913 J/K/mol
14.57 K	2.065 J/K/mol
14.92 K	2.237 J/K/mol
15 K	2.278 J/K/mol
15.27 K	2.377 J/K/mol
15.62 K	2.567 J/K/mol
15.97 K	2.765 J/K/mol
16.32 K	2.985 J/K/mol
16.68 K	3.152 J/K/mol
17.04 K	3.354 J/K/mol
17.4 K	3.602 J/K/mol
17.76 K	3.807 J/K/mol
18.11 K	4.063 J/K/mol
18.48 K	4.285 J/K/mol
18.83 K	4.521 J/K/mol
19.2 K	4.803 J/K/mol
19.56 K	5.051 J/K/mol
19.93 K	5.331 J/K/mol
20 K	5.346 J/K/mol
20.52 K	5.738 J/K/mol
21.27 K	6.302 J/K/mol
22.01 K	6.89 J/K/mol
22.77 K	7.515 J/K/mol
23.52 K	8.157 J/K/mol
24.28 K	8.822 J/K/mol
25 K	9.478 J/K/mol
25.04 K	9.545 J/K/mol
25.8 K	10.28 J/K/mol
26.57 K	10.94 J/K/mol
27.34 K	11.62 J/K/mol
28.11 K	12.31 J/K/mol
28.88 K	13.09 J/K/mol
29.66 K	13.84 J/K/mol
30 K	14.22 J/K/mol
30.44 K	14.63 J/K/mol
31.22 K	15.38 J/K/mol
32.01 K	16.18 J/K/mol
32.79 K	16.94 J/K/mol
33.58 K	17.68 J/K/mol
34.37 K	18.37 J/K/mol
35 K	19.04 J/K/mol
35.15 K	19.16 J/K/mol
35.94 K	19.87 J/K/mol
36.73 K	20.63 J/K/mol
37.52 K	21.36 J/K/mol
38.32 K	22.06 J/K/mol
39.11 K	22.79 J/K/mol
39.9 K	23.46 J/K/mol
40 K	23.61 J/K/mol
40.69 K	24.2 J/K/mol
41.48 K	24.95 J/K/mol
42.28 K	25.65 J/K/mol
43.08 K	26.38 J/K/mol
43.88 K	27.09 J/K/mol
44.68 K	27.83 J/K/mol
45 K	28.02 J/K/mol
45.48 K	28.52 J/K/mol
46.27 K	29.22 J/K/mol
47.07 K	29.92 J/K/mol
47.87 K	30.56 J/K/mol
48.67 K	31.17 J/K/mol
49.47 K	31.85 J/K/mol
50 K	32.34 J/K/mol
50.27 K	32.5 J/K/mol
51.07 K	33.12 J/K/mol
51.88 K	33.83 J/K/mol
52.68 K	34.53 J/K/mol
53.48 K	35.28 J/K/mol
54.29 K	36.14 J/K/mol
55.09 K	36.92 J/K/mol
55.9 K	37.74 J/K/mol
56.7 K	38.35 J/K/mol
57.51 K	38.9 J/K/mol
58.32 K	39.21 J/K/mol
59.12 K	39.75 J/K/mol
59.93 K	40.38 J/K/mol
60 K	40.57 J/K/mol
60.74 K	41.01 J/K/mol
61.55 K	41.64 J/K/mol
62.35 K	42.25 J/K/mol
63.15 K	42.88 J/K/mol
63.96 K	43.87 J/K/mol
64.76 K	44.47 J/K/mol
65.57 K	44.98 J/K/mol
66.38 K	45.55 J/K/mol
67.19 K	46.09 J/K/mol
67.99 K	46.67 J/K/mol
68.8 K	47.24 J/K/mol
69.61 K	47.68 J/K/mol
70 K	48.06 J/K/mol
70.54 K	48.31 J/K/mol
71.58 K	49.14 J/K/mol
72.63 K	49.7 J/K/mol
73.67 K	50.33 J/K/mol
74.72 K	50.78 J/K/mol
75.77 K	51.34 J/K/mol
76.82 K	51.96 J/K/mol
77.87 K	52.51 J/K/mol
78.92 K	53.08 J/K/mol
79.65 K	53.03 J/K/mol
79.97 K	53.66 J/K/mol
80 K	53.55 J/K/mol
80.45 K	53.52 J/K/mol
81.02 K	54.31 J/K/mol
81.25 K	53.96 J/K/mol
82.06 K	54.87 J/K/mol and 54.48 J/K/mol
82.86 K	54.97 J/K/mol
83.11 K	55.52 J/K/mol
83.66 K	55.42 J/K/mol
84.17 K	56.16 J/K/mol
84.46 K	55.88 J/K/mol
85.26 K	56.34 J/K/mol
86.06 K	56.87 J/K/mol
86.86 K	57.38 J/K/mol
87.65 K	57.86 J/K/mol
88.45 K	58.33 J/K/mol
89.25 K	58.77 J/K/mol
90 K	59.28 J/K/mol
90.05 K	59.23 J/K/mol
90.85 K	59.72 J/K/mol
91.64 K	60.19 J/K/mol
92.44 K	60.74 J/K/mol
93.24 K	61.3 J/K/mol
94.04 K	61.77 J/K/mol
94.84 K	62.19 J/K/mol
95.63 K	62.65 J/K/mol
96.43 K	63.12 J/K/mol
97.23 K	63.64 J/K/mol
98.02 K	64.16 J/K/mol
98.82 K	64.62 J/K/mol
99.62 K	65.04 J/K/mol
100 K	65.27 J/K/mol
100.5 K	65.53 J/K/mol
101.45 K	66.12 J/K/mol
102.41 K	66.61 J/K/mol
103.36 K	67.11 J/K/mol
104.32 K	67.67 J/K/mol
105.27 K	68.2 J/K/mol
106.22 K	68.79 J/K/mol
107.18 K	69.35 J/K/mol
108.13 K	69.83 J/K/mol
109.09 K	70.36 J/K/mol
110 K	70.84 J/K/mol
110.05 K	70.8 J/K/mol
111 K	71.32 J/K/mol
111.95 K	71.94 J/K/mol
112.91 K	72.42 J/K/mol
113.86 K	72.95 J/K/mol
114.82 K	73.43 J/K/mol
115.77 K	73.97 J/K/mol
116.72 K	74.36 J/K/mol
117.68 K	74.92 J/K/mol
118.63 K	75.5 J/K/mol
119.59 K	75.89 J/K/mol
120 K	76.16 J/K/mol
120.53 K	76.35 J/K/mol
121.49 K	76.8 J/K/mol
122.44 K	77.45 J/K/mol
123.39 K	77.91 J/K/mol
124.35 K	78.3 J/K/mol
125.3 K	78.8 J/K/mol
126.25 K	79.27 J/K/mol
127.21 K	79.82 J/K/mol
128.16 K	80.26 J/K/mol
129.11 K	80.78 J/K/mol
130 K	81.23 J/K/mol
130.07 K	81.26 J/K/mol
131.02 K	81.7 J/K/mol
131.97 K	82.11 J/K/mol
132.93 K	82.72 J/K/mol
133.87 K	83.14 J/K/mol
134.82 K	83.73 J/K/mol
135.76 K	84.14 J/K/mol
136.71 K	84.56 J/K/mol
137.66 K	85.22 J/K/mol
138.61 K	85.64 J/K/mol
139.56 K	85.97 J/K/mol
140 K	86.22 J/K/mol
140.51 K	86.55 J/K/mol
141.46 K	87.05 J/K/mol
142.41 K	87.47 J/K/mol
143.36 K	87.8 J/K/mol
144.31 K	88.38 J/K/mol
